Patent US11020481B2 (priority 2008, dated 2021)

How the values were obtained:
[1] = test system: IL-6; experiment: IL-6 production in TNFα-induced NL20 cells (ELISA); type: cell-based, human
Procedure: (§1) Am J Physiol Lung Cell Mol Physiol 2007; 292:[…]-352; and Donnarumma G, et al. Anti-inflammatory effects of moxifloxacin and human beta-defensin 2 association in human lung epithelial cell line (A549) stimulated with lipopolysaccharide. Peptides 2007; 28:2286-2292, incorporated by reference in their entireties). […] The effect of antibiotics on cytokine levels was assessed by ELISA assay. […] The day after seeding, cells received normal growth medium without serum for an additional 24 h. […] IL-6 and IL-8 production in NL20 monolayers was induced by treatment with 10 ng/ml of TNFα. […] After 48 h, cell medium was collected, clarified and the amount of IL-6 and IL-8 released into the medium was quantified using QuantiGlo chemiluminescent ELISA kits (R&D Systems, Minneapolis, Minn.). To test the effect of antibiotics on IL-6 and IL-8 secretion, antibiotics were added to culture media along with LPS or TNF-α and processed as described above.

[2] = test system: MIP-2; experiment: MIP-2 levels in BAL of LPS-injected mice after aerosol treatment; type: in vivo; details: 50 μg LPS i.p., aerosol 60 mg/kg 30 min after LPS, BAL 6 hours after treatment
Procedure: (§2) Mice (n=4) were injected with 50 μg LPS by an intraperitoneal route. […] Mice were sacrificed 6 hours after aerosolized treatment, and bronchoalveolar (BAL) fluid was collected by lavage with 1 ml saline. IL-6 and MIP-2 (murine homolog of human IL-8) levels were determined by ELISA.

[3] = test system: IL-8; experiment: IL-8 production in TNFα-induced NL20 cells (ELISA); type: cell-based, human; details: for levels of IL-8 decreased: p<0.005
Procedure: as §1

[4] = test system: IL-6; experiment: IL-6 production in LPS-induced HBE135 cells (ELISA); type: cell-based, human; details: for decrease in IL-6 levels: Example 5, 5 μg/ml LPS
Procedure: as §1

[5] = test system: HBE135 cells; experiment: Cytotoxicity on HBE135 cells, Alamar Blue assay; type: cell-based, human; details: for changes in cell viability in cytotoxicity assays: Example 5, LPS-induced HBE135 cells, 10-300 μg/ml, data not shown
Procedure: (§3) After 48 hour incubation with the antibiotic, cells were incubated in fresh growth media containing 5% Alamar Blue dye and fluorescence was recorded at 0 h and 4 h to assess antibiotic cytotoxicity.

[6] = test system: IL-6; experiment: IL-6 levels in BAL of LPS-injected mice after aerosol treatment; type: in vivo; details: LPS i.p., aerosol 60 mg/kg, BAL at 6 hours
Procedure: as §2

[7] = test system: IL-8, IL-6, ERK1/2, MK, and NFKB; details: human lung epithelia cells; antibiotic concentrations less than 50 μg/ml; cited from earlier work
[8] = test system: NL20 cells
Procedure: as §3

[9] = test system: IL-8; experiment: IL-8 production in LPS-induced HBE135 cells (ELISA); type: cell-based, human
Procedure: as §1

[10] = test system: IL-1β; experiment: IL-1β production in LPS-stimulated THP-1 cells (ELISA); type: cell-based, human; details: 24 h
Procedure: The human monocyte cell line, THP-1 is an established in vitro model of human monocytic cells and is capable to secrete a greater variety of cytokines compared to NL20 and HBE135 cells. THP-1 cells were cultured in RPMI-1640 medium with 10% FBS, 0.05 mM 2-mecraptoethanol. THP-1 cells were seeded on 24-well tissue culture plates at 1×10^6 cells/ml in growth media without serum. The following day, 100 ng/ml LPS from P. aeruginosa and antibiotics were added and cells incubated for 24 hours before media collection to assess cytokine production. Quantification of IL-6, IL-8, IL-1β and TNFα production was performed as described above for NL20 cells.

[11] = test system: IL-8 mRNA; experiment: IL-8 mRNA expression in TNFα-induced NL20 cells (real-time PCR); type: cell-based, human; details: NL20 monolayers, 10 ng/ml TNFα, 24 h; 100 μg/ml and 300 μg/ml
Procedure: IL-8 mRNA expression in NL20 monolayers was induced by treatment with 10 ng/ml TNFα. Levofloxacin was added simultaneously with TNFα. After 24 h incubation, the cell monolayer was washed with PBS, total cellular RNA was prepared and reverse transcription was performed using a human IL-8 specific primer and the “Cells-to-cDNA” kit from Ambion (Austin, Tex.). cDNA was subjected to real-time PCR analysis using PowerSYBR Green PCR master mix and a GeneAmp 5700 Instrument (Applied Biosystems; Warrington, UK). All data were normalized to the housekeeping gene β-actin. […] This increase correlates with the increased levels of IL-8 protein induced by TNFα.

[12] = Example 5, NL20 cells, TNFα, 10 μg/ml to 100 μg/ml
[13] = Example 5, NL20 cells, TNFα, 300 μg/ml
[14] = summary of Example 5, cultured human lung epithelial cell lines (line not given)
[15] = Example 3, NL20 cells induced with TNFα, 300 μg/ml
[16] = summary of Example 5, cultured human lung epithelial cell lines (line not given), 300 μg/ml, p<0.05

**Q.** With NC[C@H]1O[C@H](O[C@H]2[C@H](O)[C@@H](O[C@H]3O[C@H](CO)[C@@H](O)[C@H](N)[C@H]3O)[C@H](N)C[C@@H]2N)[C@H](N)C[C@@H]1O [tobramycin] as the molecule, how does the “production of IL-6” value [1, 12] read?
**A.** did not significantly affect

**Q.** And the IL-6 production [1, 13]?
**A.** increase

**Q.** And the “increased IL-6 levels” value [1, 14]?
**A.** 50%

**Q.** And the “mean MIP-2 levels” value [2]?
**A.** 502 pg/mL

**Q.** And the “production of IL-8” value [3, 12]?
**A.** did not significantly affect

**Q.** And the “effect on IL-8” value [3, 14]?
**A.** no effect

**Q.** And the “levels of IL-6” value ([4]; Example 5, LPS, 10 μg/ml, 30 μg/ml, or 100 μg/ml)?
**A.** did not affect

**Q.** What about the “increased levels of IL-6” value ([4]; Example 5, LPS, 300 μg/ml) of the same molecule?
**A.** 30%

**Q.** And the “changes in cell viability in cytotoxicity assays” value [5]?
**A.** No significant changes

**Q.** What about the “IL-6 levels compared to the saline control” value [6] of the same molecule?
**A.** increase

**Q.** Which results are given for O=C(O)c1cn(C2CC2)c2cc(N3CCNCC3)c(F)cc2c1=O [ciprofloxacin]?
**A.** change in IL-6 levels ([1]; Example 1, NL20 cells, 10 ng/ml TNFα, 48 h, 10 μg/ml and 30 μg/ml antibiotic): No significant change; IL-6 levels ([1]; Example 1, NL20 cells, TNFα, 30 μg/ml): increase

**Q.** Which “secretion of pro-inflammatory factor such as IL-8, IL-6, ERK1/2, MK, and NFKB” value [7] does the source give for Cc1c(F)c(N2CCNC(C)C2)cc2c1c(=O)c(C(=O)O)cn2C1CC1 (centres unmarked) [grepafloxacin] here?
**A.** can inhibit

**Q.** Which “reduction in IL-6 levels” value [1, 15] does the source give for C[C@H]1COc2c(N3CCN(C)CC3)c(F)cc3c(=O)c(C(=O)O)cn1c23 [levofloxacin] here?
**A.** ~10 fold

**Q.** What about the “reduction in IL-6 levels” value ([1]; Example 5, NL20 cells, 10 ng/ml TNFα, 100 μg/ml, p<0.005) of the same molecule?
**A.** 2 fold

**Q.** What about the “reduction in IL-6 levels” value ([1]; Example 5, NL20 cells, 10 ng/ml TNFα, 300 μg/ml, p<0.005) of the same molecule?
**A.** 4 fold

**Q.** What about the “reduced levels of IL-6” value [1, 16] of the same molecule?
**A.** 4 fold

**Q.** What about the “cytotoxicity compared to moxifloxacin and ciprofloxacin” value [8] of the same molecule?
**A.** less cytotoxic

**Q.** And the “levels of IL-8 decreased” value ([9]; Example 5, 100 μg/ml)?
**A.** 30%

**Q.** And the “levels of IL-8 decreased” value ([9]; Example 5, 300 μg/ml)?
**A.** 20%

**Q.** And the “reduction in IL-8 levels” value [3, 15]?
**A.** ~5 fold

**Q.** And the “levels of IL-8 decreased” value ([3]; Example 5, NL20 cells, TNFα, 100 μg/ml)?
**A.** 50%

**Q.** And the “levels of IL-8 decreased” value [3, 13]?
**A.** 60%

**Q.** What about the “reduced levels of IL-8” value [3, 16] of the same molecule?
**A.** 2 fold

**Q.** What about the “decrease in IL-6 levels” value ([4]; 100 μg/ml) of the same molecule?
**A.** 45%

**Q.** What about the “decrease in IL-6 levels” value ([4]; 300 μg/ml) of the same molecule?
**A.** 40%

**Q.** And the “decrease in IL-1I3 levels” value ([10]; 100 μg/ml)?
**A.** 40%

**Q.** What about the “decrease in IL-1I3 levels” value ([10]; 300 μg/ml) of the same molecule?
**A.** 70%

**Q.** What about the “level of IL-8 mRNA expression” value [11] of the same molecule?
**A.** no significant effect

**Q.** And the “changes in cell viability in cytotoxicity assays” value [5]?
**A.** No significant changes

**Q.** What about the “cytotoxicity compared to moxifloxacin and ciprofloxacin” value ([5]; HBE135 cells, 48 hour incubation, higher concentrations) of the same molecule?
**A.** less cytotoxic

**Q.** And the “IL-6 levels lower than in the saline control” value ([6]; p<0.05)?
**A.** more than 2 fold
